For one series, the system named is OR10-ORco. Also noted: method as in Hughes et al., 2010. The settings on record: Culex quinquefasciatus OR10-ORco; kairomone receptor; ref Hughes et al., 2010; cited from earlier work.
The subject of a further series is AaegOR10. Particulars: Aedes aegypti OR10-ORco; kairomone receptor; ref Bohbot et al., 2012; cited from earlier work.
Another series is described as follows: Water solubility. The settings on record: skatole vs indole. It is filed as physicochemical.
Series [1] addresses T1, AaegOR9 (Aedes aegypti, UniProt Q177X5). Kind of series: Two-electrode voltage clamp of Xenopus oocytes expressing AaegOR9-ORco (tuning curve and concentration-response). It is filed as cell-based. The settings on record: for Ligand potency in AaegOR9 tuning curve (in words) / AaegOR9 response relative to indole (tuning curve): 500 nM odorant; for Ligand potency in AaegOR9 tuning curve (in words): panel of 31 indole derivatives; for AaegOR9 response relative to indole (tuning curve): responses normalized to indole, n = 10; for Rank according to potency (No.): AaegOR9 tuning curve of Figure 1, 500 nM, 1 = most potent of 31. The procedure: The methodologies and protocols have been described in details elsewhere (Bohbot and Dickens, [2009]). AaegOr9 and Aaeg-ORco cRNAs (Bohbot et al., [2011]) were synthesized from linearized pSP64DV expression vectors using the mMESSAGE mMACHINE® SP6 kit (Life Technologies). Stage V-VII oocytes were harvested from Xenopus laevis females, mechanically separated, treated with collagenase (8 mg/mL, 30 min, 18°C) and rinsed in washing solution (96 mM NaCl, 2 mM KCl, 5 mM MgCl2 and 5 mM HEPES, pH 7.6). Oocytes were microinjected with 27.6 ng AaegOr9 and AaegORco cRNAs, incubated at 18°C for 3–4 days in ND96 solution (96 mM NaCl, 2 mM KCl, 5 mM MgCl2, 0.8 mM CaCl2 and 5 mM HEPES, pH 7.6), supplemented with 5% dialyzed horse serum, 50 μg/mL tetracycline, 100 μg/mL streptomycin and 550 μg/mL sodium pyruvate. Whole-cell currents were recorded using the two-microelectrode voltage-clamp technique. During recording sessions, the holding potential was maintained at −80 mV using an OC-725C oocyte clamp (Warner Instruments, LLC, Hamden, CT, USA). Oocytes placed in a RC-3Z oocyte recording chamber (Warner Instruments, LLC, Hamden, CT, USA) were exposed to odorants for 8 s. Current was allowed to return to baseline between odorant applications. Data acquisition and concentration-response analyses were carried out with a Digidata 1550A and the pCLAMP10 software (Molecular Devices, Sunnyvale, CA, USA), and analyzed using GraphPad Prism 7 (GraphPad Software Inc., La Jolla, CA, USA). Stock concentration of odorants (10^−2 M) were dissolved in ringer solution containing 2% dimethyl sulfoxide (DMSO) in order to solubilize the hydrophobic indolic compounds.
The response profile was established using multiple sessions, each including six compounds at a time and indole as an internal reference. […] All the response values were normalized to the indole reference in each recording session (Supplementary Figure 1).
For the establishment of the concentration-response curves, oocytes were exposed to increasing concentrations of indole, skatole and indole-3-carboxaldehyde (I3C; Supplementary Figure 2). Quantitative characterization of OR sensitivity was estimated using the averaged effective concentration at 50% of the maximal response (EC50) over the sample population. The data to establish the concentration response curve and EC50 of AaegOR10-skatole was extracted from a previous study (Bohbot and Dickens, [2012]).
We also included indole and skatole as references (Bohbot et al., [2011]). The screen was carried out using a low odorant concentration (500 nM) in order to mitigate the caveats associated with high ligand concentrations, including receptor adaptation, antagonist effects and technical artifacts such as broad molecular receptive ranges (Bohbot and Pitts, [2015]).
For orientation: In two-electrode clamp one electrode senses voltage and the other passes current.

The test system of series [2] is OR02-ORco. Set-up: method as in Bohbot et al., 2011. Particulars: Aedes aegypti OR02-ORco; kairomone receptor; ref Bohbot et al., 2011; cited from earlier work.
The target in series [3] is T1, AaegOR9. Set-up: method as in Bohbot et al., 2011. Particulars: ref Bohbot et al., 2011; cited from earlier work.
The subject of series [4] is OR02-ORco. Set-up: method as in Wang et al., 2010. The settings on record: Anopheles gambiae OR02-ORco; kairomone receptor; ref Wang et al., 2010; cited from earlier work.
The subject of series [5] is OR02-ORco. Set-up: method as in Pelletier et al., 2010. The settings on record: Culex quinquefasciatus OR02-ORco; kairomone receptor; ref Pelletier et al., 2010; cited from earlier work.

pEC50: −log10 of the molar value. Where two headings read alike, the source gives them in different places.

T1 sequence (Q178U6 whole entry): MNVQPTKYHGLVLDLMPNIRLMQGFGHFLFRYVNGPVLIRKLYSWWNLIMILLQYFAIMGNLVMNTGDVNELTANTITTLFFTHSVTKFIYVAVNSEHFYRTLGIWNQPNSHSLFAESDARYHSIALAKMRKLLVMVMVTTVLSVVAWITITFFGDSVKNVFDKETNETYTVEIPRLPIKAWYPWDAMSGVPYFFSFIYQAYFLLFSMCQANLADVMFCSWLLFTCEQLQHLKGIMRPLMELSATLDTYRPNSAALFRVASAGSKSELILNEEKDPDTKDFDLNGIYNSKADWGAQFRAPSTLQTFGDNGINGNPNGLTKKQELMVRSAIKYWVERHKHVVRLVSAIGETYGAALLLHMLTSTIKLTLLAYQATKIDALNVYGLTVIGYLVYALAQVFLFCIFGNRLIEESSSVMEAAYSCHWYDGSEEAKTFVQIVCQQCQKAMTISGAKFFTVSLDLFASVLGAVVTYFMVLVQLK
T1 sequence (Q177X5 entry or part of it): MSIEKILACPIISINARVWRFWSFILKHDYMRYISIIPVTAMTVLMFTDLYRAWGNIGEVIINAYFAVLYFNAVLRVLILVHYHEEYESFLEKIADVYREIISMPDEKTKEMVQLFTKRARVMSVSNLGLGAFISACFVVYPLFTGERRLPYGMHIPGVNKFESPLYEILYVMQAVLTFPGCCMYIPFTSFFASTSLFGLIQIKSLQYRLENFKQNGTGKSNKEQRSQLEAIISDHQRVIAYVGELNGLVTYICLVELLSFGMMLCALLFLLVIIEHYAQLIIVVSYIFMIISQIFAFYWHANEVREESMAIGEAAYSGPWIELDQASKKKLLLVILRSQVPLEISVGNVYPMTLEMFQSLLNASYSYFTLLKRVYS

In general, pEC50 refers to −log10 of the EC50, conventionally taken in molar units. As for `Cc1c[nH]c2ccccc12` [skatole, 3-methylindole], the pEC50 with OR10-ORco was 7.05; with AaegOR10, 6.96; on AaegOR9 [1] (AaegOR9, concentrations 100 pM to 10 μM), around 8.30; on AaegOR9 [1] (Aedes aegypti OR9-ORco, kairomone receptor, This study), 8.32. The “Water solubility relative to indole” value in “Water solubility” was “seven times less water soluble”. Also, the “Ligand potency in AaegOR9 tuning curve (in words)” value at AaegOR9 [1] was “most potent ligand”. The “AaegOR9 response relative to indole (tuning curve)” value is “five times higher than indole” on AaegOR9 [1] and “five times more potent than indole” on AaegOR9 [1] (listed as Skatole). Besides, on AaegOR9 [1] (AaegOR9, skatole vs indole), the “Fold higher sensitivity of AaegOR9 to skatole than to indole (EC50 ratio)” value is on record as 176. The “Rank according to potency (No.)” value at AaegOR9 [1] came out at 1. Moreover, on AaegOR9 [1] (selective and reversible activation), the “Concentration range activating AaegOR9” value was “high picomolar (below 1 nM) to low nanomolar (between 1 and 10 nM)”.
In the case of `c1ccc2[nH]ccc2c1` [indole, 1H-indole], the pEC50 with OR02-ORco [2] is 6.43; with OR02-ORco [4], 6.78; in the series with OR02-ORco [5], 6.55. For the same compound, the “Concentration range activating AaegOR9” value at AaegOR9 [3] is “low micromolar”. Moreover, the “Ligand potency in AaegOR9 tuning curve (in words)” value at AaegOR9 [1] was “next most potent ligands”. The “Rank according to potency (No.)” value at AaegOR9 [1] came to 3.
